In patent US11414387B2, “Oxoacridinyl acetic acid derivatives and methods of use” (Stingthera, Inc., priority 2017, dated 2022):

Experiments:
hSTING-WT = hSTING-WT (Homo sapiens (Human), UniProt Q86WV6, H232R); assay: Radiometric filtration binding competition assay, hSTING-WT
hSTING-R232 = hSTING-R232 (Homo sapiens (Human), UniProt Q86WV6, H232R); assay: STING differential scanning fluorimetry (DSF) assay, WT human STING; conditions: WT (R232) human STING aa140-379, net shift in melting temperature
STING protein = STING protein (Homo sapiens (Human), UniProt Q86WV6, H232R); assay: Cell based reporter assay of IRF activation (IRF-luciferase), THP1-dual-KI R232; conditions: read-out: THP1-dual-KI R232_IRF(Luciferase)_Activity Maximum measured (%)
STING protein, sequence (Q86WV6 whole entry H232R): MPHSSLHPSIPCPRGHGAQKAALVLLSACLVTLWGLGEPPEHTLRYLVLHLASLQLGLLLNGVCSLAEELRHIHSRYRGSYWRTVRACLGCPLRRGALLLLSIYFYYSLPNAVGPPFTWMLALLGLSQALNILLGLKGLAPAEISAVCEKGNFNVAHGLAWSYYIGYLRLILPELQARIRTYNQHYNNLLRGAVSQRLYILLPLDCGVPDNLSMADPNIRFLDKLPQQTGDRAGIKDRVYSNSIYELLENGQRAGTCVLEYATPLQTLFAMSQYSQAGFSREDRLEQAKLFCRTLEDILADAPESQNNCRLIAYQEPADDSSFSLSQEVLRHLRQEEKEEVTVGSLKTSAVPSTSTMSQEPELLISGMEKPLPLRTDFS

hSTING-WT, sequence (Q86WV6 140-379 H232R): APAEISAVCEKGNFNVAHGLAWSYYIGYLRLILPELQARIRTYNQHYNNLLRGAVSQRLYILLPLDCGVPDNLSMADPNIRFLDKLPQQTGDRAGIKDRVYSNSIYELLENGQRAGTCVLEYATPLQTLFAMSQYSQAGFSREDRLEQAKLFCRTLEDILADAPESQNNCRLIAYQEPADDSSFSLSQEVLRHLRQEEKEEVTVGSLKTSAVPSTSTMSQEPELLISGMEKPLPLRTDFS
hSTING-R232, sequence (Q86WV6 140-379 H232R): as above

IC50 (hSTING-WT) [µM]	WT_DSF_hSWAT Tm Shift (° C.) (hSTING-R232)	Emax (STING protein) [%]	SMILES
< 20	D (“D” > 7° C.)	> 50	COc1c(Cl)ccc2c(=O)c3ccc(SC4CCCCC4)cc3n(CC(=O)O)c12 [Compound 233]
100 to 300	A (“A” < 0° C.)		O=C(O)Cn1c2ccccc2c(=O)c2ccc(Cl)c(OC3CCC3)c21 [Compound 247]
> 300	A (“A” < 0° C.)		Cn1ccnc1-c1ccc2c(=O)c3ccc(Cl)c(Cl)c3n(CC(=O)O)c2c1 [Compound 188]
20 to 100	D (“D” > 7° C.)		COc1c(Cl)ccc2c(=O)c3ccc(C4=CCCOC4)cc3n(CC(=O)O)c12 [Compound 252]
< 20	D (“D” > 7° C.)	> 50	CC(C)Nc1ccc2c(=O)c3ccc(Cl)c(-c4ccccc4)c3n(CC(=O)O)c2c1 [Compound 336]
> 300	C (“C” = 2-7° C,)	< 5	COc1c(Cl)ccc2c(=O)c3ccc(C4CCCNC4)cc3n(CC(=O)O)c12 (centres unmarked) [Compound 227]
> 300	C (“C” = 2-7° C,)	< 5	O=C(O)Cn1c2ccccc2c(=O)c2ccc(Cl)c(-c3cccnc3)c21 [Compound 334]
> 300	B (“B” = 0-2° C.)	25 to 50	CONC(=O)Cn1c2cc(C)ccc2c(=O)c2ccc(Cl)c(OC)c21 [Compound 339]
20 to 100	C (“C” = 2-7° C,)	> 50	CC(C)c1ccc2c(=O)c3ccc(Cl)c(Cl)c3n(CC(=O)NS(C)(=O)=O)c2c1 [Compound 352]
< 20	D (“D” > 7° C.)		COc1c(Cl)ccc2c(=O)c3ccc(Nc4ccc(O)cc4)cc3n(CC(=O)O)c12 [Compound 236]
> 300	A (“A” < 0° C.)		C[C@@H](C(=O)O)n1c2ccccc2c(=O)c2ccc(Cl)c(Cl)c21 [Compound 100]
100 to 300	C (“C” = 2-7° C,)	25 to 50	CSc1ccc2c(=O)c3ccc(Cl)c(Cl)c3n(CC(=O)O)c2c1 [Compound 137]
20 to 100	C (“C” = 2-7° C,)	5 to 25	C[C@H]1CCCN1c1ccc2c(=O)c3ccc(Cl)c(Br)c3n(CC(=O)O)c2c1 [Compound 202]
20 to 100	D (“D” > 7° C.)		CN(C)c1c(Cl)ccc2c(=O)c3ccccc3n(CC(=O)O)c12 [Compound 136]
20 to 100			CCOc1c(Cl)ccc2c(=O)c3ccc(C(C)(C)C)cc3n(CC(=O)O)c12 [Compound 224]
100 to 300	C (“C” = 2-7° C,)		O=C(O)Cn1c2cc(-c3cc[nH]n3)ccc2c(=O)c2ccc(Cl)c(Cl)c21 [Compound 182]
20 to 100	D (“D” > 7° C.)	> 50	COc1c(Cl)ccc2c(=O)c3ccc(C)cc3n(CC(=O)O)c12 [Compound 280]
> 300	C (“C” = 2-7° C,)	> 50	CCS(=O)(=O)NC(=O)Cn1c2cc(C)ccc2c(=O)c2ccc(Cl)c(OC)c21 [Compound 349]
20 to 100	C (“C” = 2-7° C,)	> 50	COc1c(Cl)ccc2c(=O)c3ccc(NC(C)C)cc3n(CC(=O)O)c12 [Compound 300]
> 300	A (“A” < 0° C.)		O=C(O)CCCn1c2ccccc2c(=O)c2ccc(Cl)c(Cl)c21 [Compound 205]
> 300	B (“B” = 0-2° C.)		CC(O)c1ccc2c(=O)c3ccc(Cl)c(Cl)c3n(CC(=O)O)c2c1 (centres unmarked) [Compound 191]
100 to 300	B (“B” = 0-2° C.)		O=C(O)Cn1c2cc(-c3nccs3)ccc2c(=O)c2ccc(Cl)c(Cl)c21 [Compound 187]

IC50 (hSTING-WT) [µM]	WT_DSF_hSWAT Tm Shift (° C.) (hSTING-R232)	Emax (STING protein) [%]	SMILES
20 to 100	C (“C” = 2-7° C,)	25 to 50	O=C(O)Cn1c2cc(-c3ccco3)ccc2c(=O)c2ccc(Cl)c(Cl)c21 [Compound 186]
> 300	B (“B” = 0-2° C.)		COc1c(Cl)ccc2c(=O)c3ccc(S(C)(=O)=O)cc3n(CC(=O)O)c12 [Compound 249]
> 300	C (“C” = 2-7° C,)		CC(C)c1ccc2c(=O)c3ccc(I)c(Cl)c3n(CC(=O)O)c2c1 [Compound 195]
> 300	C (“C” = 2-7° C,)		Cn1ccc(-c2ccc3c(=O)c4ccc(Cl)c(Cl)c4n(CC(=O)O)c3c2)n1 [Compound 184]
100 to 300	A (“A” < 0° C.)		CC(C)(O)c1ccc2c(=O)c3ccc(Cl)c(Cl)c3n(CC(=O)O)c2c1 [Compound 168]
20 to 100	D (“D” > 7° C.)		O=C(O)Cn1c2cc(C3CCC(O)CC3)ccc2c(=O)c2ccc(Cl)c(Cl)c21 (centres unmarked) [Compound 214]
	C (“C” = 2-7° C,)	5 to 25	O=C(O)Cn1c2cc(C3CCC(O)CC3)ccc2c(=O)c2ccc(Cl)c(Cl)c21 (centres unmarked) [Compound 264]
> 300	B (“B” = 0-2° C.)		O=C(O)Cn1c2cc(C(F)F)ccc2c(=O)c2ccc(Cl)c(Cl)c21 [Compound 166]
> 300	B (“B” = 0-2° C.)		COc1c(Cl)ccc2c(=O)c3cc(F)c(C(C)C)cc3n(CC(=O)O)c12 [Compound 248]
100 to 300	C (“C” = 2-7° C,)		CC(C)Oc1c(Cl)ccc2c(=O)c3ccccc3n(CC(=O)O)c12 [Compound 246]
100 to 300	A (“A” < 0° C.)		O=C(Cn1c2ccccc2c(=O)c2ccc(Cl)c(Cl)c21)NO [Compound 353]
> 300	A (“A” < 0° C.)		O=C(O)Cn1c2ccccc2c2ccc(Cl)c(Cl)c21 [Compound 209]
< 20	D (“D” > 7° C.)		CSc1c(Cl)ccc2c(=O)c3ccc(Nc4ccc(F)cc4)cc3n(CC(=O)O)c12 [Compound 259]
> 300	A (“A” < 0° C.)		O=C(O)Cn1c2cc(C(O)(C(F)(F)F)C(F)(F)F)ccc2c(=O)c2ccc(Cl)c(Cl)c21 [Compound 167]
> 300	C (“C” = 2-7° C,)		O=C(O)Cn1c2cc(-c3cccnc3)ccc2c(=O)c2ccc(Cl)c(Cl)c21 [Compound 190]
20 to 100	D (“D” > 7° C.)		COc1c(Cl)ccc2c(=O)c3ccc(C(C)C)cc3n(CC(=O)O)c12 [Compound 245]
> 300	A (“A” < 0° C.)		C[C@H](C(=O)O)n1c2ccccc2c(=O)c2ccc(Cl)c(Cl)c21 [Compound 101]
20 to 100			CC(C)c1ccc2c(c1)c1ccc(Cl)c(Cl)c1n2CC(=O)O [Compound 240]
20 to 100	C (“C” = 2-7° C,)		COc1c(Cl)ccc2c(=O)c3ccc(C4CCOCC4)cc3n(CC(=O)O)c12 [Compound 255]
< 20			O=C(O)Cn1c2cc([C@H]3CC[C@H](O)CC3)ccc2c(=O)c2ccc(Cl)c(Cl)c21 [Compound 264]
20 to 100	D (“D” > 7° C.)		CSc1ccc2c(=O)c3ccc(Cl)c(Br)c3n(CC(=O)O)c2c1 [Compound 196]
